According to ChEMBL document CHEMBL1795277, “Synthesis of novel pyrazolo[1,5-a]pyrazin-4(5H)-one derivatives and their inhibition against growth of A549 and H322 lung cancer cells” (Bioorg Med Chem Lett, 2011):
Activity calls are given as the source filed them. The calls are words filed in the database; no cut-off is given here.

Columns and labels:
Type in all cases: functional, cell-based
NCI-H322 [1] = experiment: Cytotoxicity against human NCI-H322 cells assessed as reduction of total cell quantity at 40 uM after 48 hrs by inverted microscopic analysis
NCI-H322 [2] = experiment: Cytotoxicity against human NCI-H322 cells assessed as cell growth inhibition at 40 uM after 48 hrs by SRB assay
NCI-H322 [3] = experiment: Induction necrosis in human NCI-H322 cells at 40 uM after 48 hrs by LDH release assay
[4] = (§1) Cytotoxicity against human NCI-H322 cells assessed as cell growth inhibition after 48 hrs by SRB assay; details: NCI-H322, 48 h
NCI-H322 [5] = experiment: as §1
A549 [6] = experiment: Cytotoxicity against human A549 cells assessed as reduction of total cell quantity at 40 uM after 48 hrs by inverted microscopic analysis
A549 [7] = experiment: Cytotoxicity against human A549 cells assessed as cell growth inhibition after 48 hrs by SRB assay; details: for IC50: A549, 48 h
NCI-H322 [8] = experiment: Induction morphological changes in human NCI-H322 cells at 40 uM after 48 hrs by inverted microscopic analysis
A549 [9] = experiment: Induction necrosis in human A549 cells at 40 uM after 48 hrs by LDH release assay
A549 [10] = experiment: Cytotoxicity against human A549 cells assessed as cell growth inhibition at 40 uM after 48 hrs by SRB assay
A549 [11] = experiment: Induction morphological changes in human A549 cells at 40 uM after 48 hrs by inverted microscopic analysis

Structure (SMILES)	Activity (NCI-H322 [1])	growth inhibition (GI) (NCI-H322 [2])	Activity (NCI-H322 [3])	IC50 [4] [µM]	growth inhibition (GI) (NCI-H322 [5])	Activity (A549 [6])	growth inhibition (GI) (A549 [7])	IC50 (A549 [7]) [µM]	Activity (NCI-H322 [8])	Activity (A549 [9])	growth inhibition (GI) (A549 [10])	Activity (A549 [11])
O=c1c2cc(-c3ccc(Cl)cc3)nn2cc(-c2ccccc2)n1CCOCCO	Active	Active	inactive	29.4	Dose-dependent effect	Active	Dose-dependent effect	24.2	Active	inactive	Active	Active
COc1ccc(-c2cc3c(=O)n(CCOCCO)c(-c4ccccc4)cn3n2)cc1	–	Active	–	68.7	–	–	–	50.3	–	–	Active	–
COc1ccc(-c2cc3c(=O)n(CCOCCO)c(-c4ccc(Cl)cc4)cn3n2)cc1	–	Active	–	76.9	–	–	–	49.7	–	–	Active	–
COc1ccc(-c2cc3c(=O)n(CCOCCO)c(-c4ccc(OC)cc4)cn3n2)cc1	Active	Active	inactive	50.6	Dose-dependent effect	Active	Dose-dependent effect	34.7	Active	inactive	Active	Active
O=c1c2cc(-c3ccccc3)nn2cc(-c2ccc(Cl)cc2)n1CCOCCO	–	Active	–	91	–	–	–	62.6	–	–	Active	–
COc1ccc(-c2cn3nc(-c4ccccc4)cc3c(=O)n2CCOCCO)cc1	–	Active	–	74.7	–	–	–	59	–	–	Active	–
O=c1c2cc(-c3ccccc3)nn2cc(-c2ccccc2)n1CCOCCO	Active	Active	inactive	45.6	Dose-dependent effect	Active	Dose-dependent effect	41.1	Active	inactive	Active	Active
